# Source: US20250241890A1, “1,4-DIUREAS AND 1,4-DITHIOUREAS AND USES THEREOF” (Purdue Research Foundation, priority 2024, published 2025)
# “Also recorded” adds a separate entry of the source.
# Target: T1, α-synuclein (α-syn) (Homo sapiens, UniProt P37840)
# T1 construct: purchased rPeptide (Watkinsville, GA)
# Assay: Thioflavin T (ThT) fluorescence assay of α-syn fibril formation
# Format: biochemical
# Details: α-syn 2 μM final concentration, compounds at 100 μM, average of three replicates with SEM
# Method: Chemical and peptide source. Dimethylsulfoxide (DMSO) and thioflavin-T (ThT) were purchased from Alfa Aesar (Ward Hill, MA). Recombinant α-synuclein (α-syn) was procured from rPeptide (WatKinsville, GA). The recombinant p-tau isoform 1N4R was prepared as published previously (Fortin et al. 2021, Sui et al. 2015, Liu et al. 2020). Concerning the preparation of tau 0N4R, a bacterial expression plasmid consisting of the vector pET30a carrying a cDNA encoding the human Tau 0N4R isoform was a kind gift of Dr. Benjamin Wolozin (Boston University). E. coli stock (Rosetta BL21 E. coli (CamR) containing pET30a [0N4R tau wt] (KanR)) was grown in LB medium supplemented with kanamycin (50 μg/mL) and chloramphenicol (50 μg/mL). Protein over-expression was induced by the addition of 1 mM IPTG for ˜18 hours at 37° C., and cells were pelleted by centrifugation at 6,000 g for 15 minutes at 4° C. The cells were resuspended in lysis buffer (10 mM Hepes, pH 7.4, 50 mM NaCl, 1 mM MgCl2, 1 mM PMSF, 1× PIC, and 0.5 mM DTT) and lysed by sonication at 30 seconds “On” and 1 minute “Off” at ˜30-45% power for ˜3-5 minutes. Lysate was centrifuged at 10,000 rpm for 10 minutes at 4° C., and supernatant was transferred with 7.8 ml (total) of 3M NaCl. The lysate was incubated for 10 minutes in 80° C. water bath, then cooled for 10 minutes in an ice bath. The lysate was centrifuged at 10,000 rpm at 4° C. for 10 minutes, and the supernatant was transferred to a new tube. The supernatant was dialyzed overnight against cation exchange buffer (50 mM MES, […], 1 mM DTT, pH 6.0). The dialysate was loaded onto a HiPrep SP HP column, and proteins were eluted with a linear gradient ranging from 50 mM to 1 M NaCl. General Characterizations. ^1H and ^13C {1H} NMR spectra were recorded using a 500 MHz Bruker instrument working at a frequency of 500 MHz for ^1H and at 126 MHz for ^13C. Chemical shifts are reported in ppm using residual solvent resonances as internal reference (δ 2.50 and δ 39.51 for ^1H and ^13C in DMSO-d6, respectively). ^1H NMR data are reported as follows. b=broad, s=singlet, d=doublet, t=triplet, q=quartet, and m=multiplet. Coupling constants are given in hertz. The purity of all compounds and synthetic intermediates was judged to be 95% or better based on ^1H NMR. IR measurements were performed in a Nicolet FTIR as thin films in the Purdue Drug Discovery facility. High-resolution mass spectrometry analyses were conducted at the MSU Mass Spectrometry facility. Thioflavin fluorescence assays. […] The recombinant α-syn obtained from rPeptide has been validated with proper quality control to confirm the monomeric state of the protein. Kinetics of fibril formation have been performed using ThT as published previously.^6, 12, 13, 24 The fluorescence emission experiments were performed with the excitation and emission wavelengths set at 440 and 485 nm, respectively, with a Synergy HT multi-mode microplate reader (BioTek, Winooski, VT). Samples were measured in three replicates. Experiments were repeated three times using different α-syn stock solutions. For each time point, arbitrary units of fluorescence were calculated from the mean values normalized against the maximum value. The percentage of fluorescence intensity at the plateau phase in Table 1 was expressed as mean #SEM. Concerning the dose response curve depicted in FIG. 2, the data were plotted using GraphPad Prism. Photo-induced Cross-linking of Unmodified Proteins (PICUP) Assay. To induce oligomerization by cross-linking, α-syn (from Rpeptide, LLC) was diluted in 10 mM phosphate buffer (pH 7.4) to reach a final concentration of 50 μM. Different compounds were added to the protein solution at a final concentration of 50 μM, resulting in a molar ratio of 1:1. PICUP assays were performed with the following controls: samples without light exposition, without Ru(bpy) or ammonium persulfate, and without compound (i.e., 0.125% DMSO). […]
row,Compound,"% ThT intensity (100 μM), maximum ThT intensity in percentage"
1,"1,1′-(1,4-phenylene)bis(3-(pyridin-4-yl)urea) [Compound 19]",19 41.6 ± 3.6%
2,"1,1′-(1,4-phenylene)bis(3-cyclohexylthiourea) [Compound 20]",20 85% ± <15

# Same assay, conditions: α-syn 2 μM final concentration, compounds at 100 μM, average of three replicates with SEM; read-out: % ThT intensity (100 μM), maximum ThT intensity in percentage
row,Compound,remaining activity at 100 µM [%]
1,"O=C(Nc1ccc(NC(=O)Nc2ccc3[nH]ccc3c2)cc1)Nc1ccc2[nH]ccc2c1 [Compound 3, 3-(1H-indol-5-yl)-1-(4-{[(1H-indol-5-yl)carbamoyl]amino}phenyl)urea]",57
2,"O=C(Nc1ccccc1)Nc1ccc(NC(=O)Nc2ccccc2)cc1 [Compound 9, 1-phenyl-3-{4-[(phenylcarbamoyl)amino]phenyl}urea]",93.5
3,"S=C(Nc1ccccc1)Nc1ccc(NC(=S)Nc2ccccc2)cc1 [Compound 10, 1-phenyl-3-{4-[(phenylcarbamothioyl)amino]phenyl}thiourea]",94
4,"O=C(Nc1cccc2[nH]ccc12)N[C@H]1CC[C@H](NC(=O)Nc2cccc3[nH]ccc23)CC1 [Compound 21, 1,1′-((1R,4R)-cyclohexane-1,4-diyl)bis(3-(1H-indol-4-yl)urea)]",91.6
5,"Cc1c(NC(=O)Nc2ccc(N3CCOCC3)cc2)cccc1NC(=O)Nc1ccc(N2CCOCC2)cc1 [Compound 22, 1,1′-(2-methyl-1,3-phenylene)bis(3-(4-morpholinophenyl)urea)]",93.5

# Same assay, conditions: α-syn 6 μM final concentration, compounds at 100 μM, average of three replicates
row,Compound,maximum thioflavin T (ThT) intensity in percentage
1,"O=C(Nc1ccccc1)Nc1cccc(NC(=O)Nc2ccccc2)c1 [Compound 11, 3-phenyl-1-{3-[(phenylcarbamoyl)amino]phenyl}urea]",Compound 11 108.6 ± 4.7%
2,"O=C(Nc1cccc(NC(=O)Nc2cccc3[nH]ccc23)c1)Nc1cccc2[nH]ccc12 [Compound 12, 3-(1H-indol-4-yl)-1-(3-{[(1H-indol-4-yl)carbamoyl]amino}phenyl)urea]",Compound 12 8.8 ± 0.2%
3,"O=C(Nc1cccc(NC(=O)Nc2ccc3[nH]ccc3c2)c1)Nc1ccc2[nH]ccc2c1 [Compound 13, 3-(1H-indol-5-yl)-1-(3-{[(1H-indol-5-yl)carbamoyl]amino}phenyl)urea]",Compound 13 27.7 ± 2.9%
4,"O=C(Nc1cccc(NC(=O)Nc2ccc3cc[nH]c3c2)c1)Nc1ccc2cc[nH]c2c1 [Compound 14, 3-(1H-indol-6-yl)-1-(3-{[(1H-indol-6-yl)carbamoyl]amino}phenyl)urea]",Compound 14 12.4 ± 1.8%
5,"O=C(Nc1cccc(NC(=O)Nc2cccc3[nH]ccc23)c1)Nc1cccc2[nH]ccc12 [Compound 15, 3-(1H-indol-4-yl)-1-(3-{[(1H-indol-4-yl)carbamoyl]amino}phenyl)urea]",Compound 15 28.1 ± 2.1%
6,"Cc1c(NC(=O)Nc2cccc3[nH]ccc23)cccc1NC(=O)Nc1cccc2[nH]ccc12 [Compound 16, 3-(1H-indol-4-yl)-1-(3-{[(1H-indol-4-yl)carbamoyl]amino}-2-methylphenyl)urea]",Compound 16 23.4 ± 0.2%
7,"Cc1c(NC(=O)Nc2ccc3[nH]ccc3c2)cccc1NC(=O)Nc1ccc2[nH]ccc2c1 [Compound 17, 3-(1H-indol-5-yl)-1-(3-{[(1H-indol-5-yl)carbamoyl]amino}-2-methylphenyl)urea]",Compound 17 116.4 ± 8.8%
8,"Cc1c(NC(=O)Nc2ccc3cc[nH]c3c2)cccc1NC(=O)Nc1ccc2cc[nH]c2c1 [Compound 18, 3-(1H-indol-6-yl)-1-(3-{[(1H-indol-6-yl)carbamoyl]amino}-2-methylphenyl)urea]",Compound 18 49.7 ± 5.0%

# Target: T1, α-synuclein (α-syn)
# Assay: PICUP assay of α-syn oligomer formation
# Format: biochemical
# Details: α-syn 60 μM, compound 50 μM (~molar ratio 1:1)
# Method: Chemical and peptide source. Dimethylsulfoxide (DMSO) and thioflavin-T (ThT) were purchased from Alfa Aesar (Ward Hill, MA). Recombinant α-synuclein (α-syn) was procured from rPeptide (WatKinsville, GA). The recombinant p-tau isoform 1N4R was prepared as published previously (Fortin et al. 2021, Sui et al. 2015, Liu et al. 2020). Concerning the preparation of tau 0N4R, a bacterial expression plasmid consisting of the vector pET30a carrying a cDNA encoding the human Tau 0N4R isoform was a kind gift of Dr. Benjamin Wolozin (Boston University). E. coli stock (Rosetta BL21 E. coli (CamR) containing pET30a [0N4R tau wt] (KanR)) was grown in LB medium supplemented with kanamycin (50 μg/mL) and chloramphenicol (50 μg/mL). Protein over-expression was induced by the addition of 1 mM IPTG for ˜18 hours at 37° C., and cells were pelleted by centrifugation at 6,000 g for 15 minutes at 4° C. The cells were resuspended in lysis buffer (10 mM Hepes, pH 7.4, 50 mM NaCl, 1 mM MgCl2, 1 mM PMSF, 1× PIC, and 0.5 mM DTT) and lysed by sonication at 30 seconds “On” and 1 minute “Off” at ˜30-45% power for ˜3-5 minutes. Lysate was centrifuged at 10,000 rpm for 10 minutes at 4° C., and supernatant was transferred with 7.8 ml (total) of 3M NaCl. The lysate was incubated for 10 minutes in 80° C. water bath, then cooled for 10 minutes in an ice bath. The lysate was centrifuged at 10,000 rpm at 4° C. for 10 minutes, and the supernatant was transferred to a new tube. The supernatant was dialyzed overnight against cation exchange buffer (50 mM MES, […], 1 mM DTT, pH 6.0). The dialysate was loaded onto a HiPrep SP HP column, and proteins were eluted with a linear gradient ranging from 50 mM to 1 M NaCl. General Characterizations. ^1H and ^13C {1H} NMR spectra were recorded using a 500 MHz Bruker instrument working at a frequency of 500 MHz for ^1H and at 126 MHz for ^13C. Chemical shifts are reported in ppm using residual solvent resonances as internal reference (δ 2.50 and δ 39.51 for ^1H and ^13C in DMSO-d6, respectively). ^1H NMR data are reported as follows. b=broad, s=singlet, d=doublet, t=triplet, q=quartet, and m=multiplet. Coupling constants are given in hertz. The purity of all compounds and synthetic intermediates was judged to be 95% or better based on ^1H NMR. IR measurements were performed in a Nicolet FTIR as thin films in the Purdue Drug Discovery facility. High-resolution mass spectrometry analyses were conducted at the MSU Mass Spectrometry facility. Thioflavin fluorescence assays. Thioflavin fluorescence assays were used to monitor fibril formation of commercial recombinant α-syn at a final concentration of 2 μM and treated with control DMSO and different compounds. The recombinant α-syn obtained from rPeptide has been validated with proper quality control to confirm the monomeric state of the protein. Kinetics of fibril formation have been performed using ThT as published previously.^6, 12, 13, 24 The fluorescence emission experiments were performed with the excitation and emission wavelengths set at 440 and 485 nm, respectively, with a Synergy HT multi-mode microplate reader (BioTek, Winooski, VT). Samples were measured in three replicates. Experiments were repeated three times using different α-syn stock solutions. For each time point, arbitrary units of fluorescence were calculated from the mean values normalized against the maximum value. The percentage of fluorescence intensity at the plateau phase in Table 1 was expressed as mean #SEM. Concerning the dose response curve depicted in FIG. 2, the data were plotted using GraphPad Prism. Photo-induced Cross-linking of Unmodified Proteins (PICUP) Assay. […] Different compounds were added to the protein solution at a final concentration of 50 μM, resulting in a molar ratio of 1:1. PICUP assays were performed with the following controls: samples without light exposition, without Ru(bpy) or ammonium persulfate, and without compound (i.e., 0.125% DMSO). […]
row,Compound,effect on α-syn oligomer formation (high molecular weight bands) by PICUP
1,"Nc1cccc2[nH]ccc12 [4-aminoindole, reference compound]",abrogated the formation of high molecular weight bands
2,"Nc1ccc2[nH]ccc2c1 [5-aminoindole, reference compound]",abrogated the formation of high molecular weight bands
3,"Nc1ccc2cc[nH]c2c1 [6-aminoindole, reference compound]",abrogated the formation of high molecular weight bands
4,"O=C(Nc1ccc(NC(=O)Nc2ccc3[nH]ccc3c2)cc1)Nc1ccc2[nH]ccc2c1 [Compound 3, 3-(1H-indol-5-yl)-1-(4-{[(1H-indol-5-yl)carbamoyl]amino}phenyl)urea]",mediocre; also recorded: reduced slightly
